# From PubChem BioAssay (NCI)
#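 48-hour exposure; five concentrations; linearly interpolated endpoints. TGI marks complete inhibition of growth.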
# Tests used:
# Assay in all cases: NCI anticancer screen, dose series, 48 h
# [1] = test system: U251 CNS
# [2] = test system: SK-MEL-5 melanoma
# [3] = test system: UACC-62 melanoma
# [4] = test system: SK-MEL-2 melanoma
# [5] = test system: MDA-MB-231 breast
# [6] = test system: RXF 393 renal
# [7] = test system: T-47D breast
# [8] = test system: BT-549 breast
# [9] = test system: PC-3 prostate
# [10] = test system: CAKI-1 renal
# [11] = test system: IGROV1 ovarian
SMILES,TGI [1],TGI [2],TGI [3],TGI [4],TGI [5],TGI [6],TGI [7],TGI [8],TGI [9],TGI [10],TGI [11]
O=[N+]([O-])C(C(Cl)=C(Cl)Cl)=C(n1cncn1)n1cncn1,> 87.1 µM,31.8 µM,> 100 µM,> 100 µM,39.3 µM,43.4 µM,51 µM,36 µM,> 100 µM,11.4 µM,39.7 µM
Cc1cn(C2OC(CO)C(O)C2F)c(=O)[nH]c1=O (stereo not drawn),> 100 µM,> 100 µM,> 100 µM,> 100 µM,> 100 µM,> 100 µM,> 100 µM,> 100 µM,> 100 µM,> 100 µM,> 100 µM
O=C(C1OC1c1cccc([N+](=O)[O-])c1)C12CC3CC(CC(C3)C1)C2 (stereo not drawn),9.64 µM,22.9 µM,14.1 µM,28.6 µM,17.5 µM,16.8 µM,26.3 µM,12.6 µM,16.1 µM,24.5 µM,20.2 µM
COc1cc(OC)c(C2(c3c(OC(C)C)c(=O)c3=O)SCCCS2)cc1OC,> 100 µM,> 100 µM,> 100 µM,> 100 µM,> 100 µM,> 100 µM,> 100 µM,> 100 µM,> 100 µM,> 100 µM,> 100 µM
COC(=O)[C@H](Cc1c[nH]c2ccccc12)NC(=O)c1ccccc1I,> 100 µM,29.6 µM,34.1 µM,45.8 µM,> 100 µM,39.8 µM,76.2 µM,> 100 µM,59.3 µM,50.6 µM,> 100 µM
CN(C)N=Nc1ccc2[nH]c(=O)[nH]c2c1,> 100 µM,> 100 µM,> 100 µM,> 100 µM,> 100 µM,> 100 µM,> 100 µM,> 100 µM,> 100 µM,> 100 µM,> 100 µM
CCOC(=O)c1nc2cc(C(F)(F)F)ccc2nc1Oc1ccc(F)cc1,> 100 µM,> 100 µM,> 100 µM,> 100 µM,> 100 µM,> 100 µM,> 100 µM,> 100 µM,> 100 µM,> 100 µM,> 100 µM
COC(=O)C1(O)C(c2ccccc2)NC2(C)CCCC21 (stereo not drawn),> 100 µM,> 100 µM,> 100 µM,> 100 µM,> 100 µM,> 100 µM,> 100 µM,> 100 µM,> 100 µM,> 100 µM,> 100 µM
COc1cccc2cc(C(=O)NC34CC5CC(CC(C5)C3)C4)c(=N)oc12,> 100 µM,> 100 µM,> 100 µM,> 100 µM,> 100 µM,> 79.9 µM,> 74.4 µM,> 100 µM,> 100 µM,> 100 µM,> 85.7 µM
CN(C)c1ccc(/C=C(\NC(=O)c2ccccc2)C(=O)NC(Cc2c[nH]c3ccccc23)C(=O)O)cc1 (stereo not drawn),> 100 µM,> 100 µM,> 100 µM,> 100 µM,> 100 µM,> 100 µM,> 100 µM,> 100 µM,> 100 µM,> 100 µM,> 100 µM
O=c1c2c3c(sc2nc2n1N=CN(c1ccc(F)cc1)C2)CCCC3,> 100 µM,> 100 µM,> 100 µM,> 100 µM,> 100 µM,> 100 µM,> 100 µM,> 100 µM,> 100 µM,> 100 µM,> 100 µM
C#C[C@]1(O)CC[C@H]2[C@@H]3CCC4=C/C(=N/OC(=O)c5cccc6c(=O)c7ccccc7[nH]c56)CCC4[C@H]3CC[C@@]21CC (stereo partly drawn),> 100 µM,> 53.1 µM,> 71.9 µM,> 100 µM,> 100 µM,12.6 µM,> 75.9 µM,87.8 µM,> 96 µM,> 85 µM,> 100 µM
O=C(NC1(C(=O)O)CCCC1)c1ccccc1,> 100 µM,> 100 µM,> 100 µM,> 100 µM,> 100 µM,> 100 µM,> 100 µM,> 100 µM,> 100 µM,> 100 µM,> 100 µM
C=CCn1c(-c2ccc(Cl)cc2)csc1=Nc1ccccc1OC,> 100 µM,8.11 µM,> 94 µM,> 100 µM,> 100 µM,> 100 µM,8.5 µM,> 100 µM,> 100 µM,> 100 µM,> 100 µM
O=P1(Cc2ccccc2)c2ccccc2-c2ccccc21,70.5 µM,4.18 µM,13.7 µM,7.49 µM,> 79.4 µM,28.9 µM,6 µM,21.3 µM,> 100 µM,50.4 µM,19.3 µM
C[n+]1cn(-c2nc3ccccc3nc2[N-]S(=O)(=O)c2ccccc2)c2ccccc21,> 100 µM,> 100 µM,> 100 µM,> 100 µM,> 100 µM,> 100 µM,> 100 µM,> 100 µM,> 100 µM,> 100 µM,> 100 µM
CC(=O)c1c(O)n(-c2ccc(C)cc2)c(=O)c2c(N)n[nH]c12,> 100 µM,> 100 µM,> 100 µM,> 100 µM,> 100 µM,> 100 µM,> 100 µM,> 100 µM,> 100 µM,> 100 µM,> 100 µM
N#Cc1c(-c2ccc([N+](=O)[O-])cc2)cc(-c2ccc(Nc3ccnc4cc(Cl)ccc34)cc2)nc1N,2.82 µM,> 55.4 µM,> 64.1 µM,43.5 µM,33.7 µM,34.9 µM,11.1 µM,> 100 µM,37.4 µM,40.4 µM,15 µM
Cc1cc(N(CCC#N)CCC#N)ccc1/C(N=Nc1ccc([N+](=O)[O-])cc1)=N\NC(=O)c1ccccc1,> 100 µM,> 100 µM,> 100 µM,> 100 µM,> 100 µM,> 100 µM,97.1 µM,> 100 µM,> 100 µM,> 100 µM,> 100 µM
C[C@H]1O[C@@H](C(C)(C)C)OC(=O)[C@@H]1C(OC(=O)c1ccccc1)c1cccc2ccccc12 (stereo partly drawn),> 100 µM,> 100 µM,> 100 µM,> 100 µM,> 100 µM,> 100 µM,> 100 µM,> 100 µM,> 100 µM,> 100 µM,> 100 µM
NS(=O)(=O)c1nnc(NS(=O)(=O)c2ccc([N+](=O)[O-])cc2)s1,> 100 µM,> 100 µM,> 100 µM,> 100 µM,> 100 µM,> 100 µM,> 100 µM,> 100 µM,> 100 µM,> 100 µM,> 100 µM
Nc1c2cc3ccc2nc2ccc(cc12)OCCOCCOCCOCCOCCOCCO3,> 10 µM,> 10 µM,> 10 µM,> 10 µM,> 10 µM,> 10 µM,> 10 µM,> 10 µM,> 10 µM,> 10 µM,> 10 µM
CCNC(=S)NNC(=O)CSc1nc2ccc(I)cc2c(=O)n1Cc1ccccc1,> 100 µM,> 100 µM,> 100 µM,> 94.9 µM,> 100 µM,> 81 µM,> 100 µM,> 100 µM,> 100 µM,1.65 µM,> 100 µM
